From patent US20060088598A1, “Intravenous composition, process for producing the same and preparation thereof” (LTT Bio-Pharama Co., Ltd., priority 2002, published 2006)

Experiments:
Type in all cases: physicochemical
[1] = Releasing behavior of agent from agent-encapsulated PLGA microparticles in suspension; settings: 3% BSA-containing PBS at 37° C.; FIG. 3
Protocol: (§1) 30 mg of PLGA (Wako) or PLA (Wako), 3 mg of egg yolk lecithin (Wako), and 1 mg of AS006 or BDP were dissolved in 1 ml of dichloromethane, and microparticles were then produced by the same method as described in Example 1. The obtained microparticles were suspended in distilled water, PBS, or 3% BSA-containing PBS. The suspension was allowed for a certain period of time, and was then centrifuged at 13,000 g for 10 minutes. Thereafter, AS006 or BDP contained in the deposit was assayed by HPLC.

[2] = Remaining ratio of agent in PLGA microparticles after 1% SDS or 80% FBS, 37° C., 5 minutes; settings: with addition of SDS, FIG. 4
Protocol: Each of the agents produced in Example 1 was suspended in 80% FBS (fetal bovine serum) or in a 1% SDS aqueous solution, and the suspension was incubated at 37° C. for 5 minutes. Thereafter, the resultant product was centrifuged at 13,000 g for 10 minutes, and the amount of the agent contained in the deposit was assayed by HPLC.

[3] = Releasing behavior after freeze-drying in 10% sucrose; settings: freeze-dried in 10% sucrose, resuspended in 3% BSA-containing PBS; FIGS. 6 and 7
Protocol: as §1
A 10% stabilizer was added to the PLGA microparticle suspension produced in Example 2, and the suspension was then frozen with acetone/dry ice, followed by performing a freeze-drying treatment. The dried PLGA microparticles were dispersed in water again. Thereafter, the turbidity of the suspension was measured with a spectrophotometer, and the microparticle size thereof was measured with a dynamic light scattering photometer. In addition, the AS006-containing PLGA microparticles produced in Example 4 and the BDP-containing PLGA microparticles produced in Example 2 were freeze-dried in 10% sucrose, and the remaining amount of the agent and the releasing behavior were measured by the method described in Example 2.

[4] = Encapsulation ratio of agents in PLGA microparticles (HPLC of supernatant and deposit); settings: FIG. 1; microparticles of Example 1
Protocol: 100 mg of PLGA (Wako) or PLA (Wako), 10 mg of egg yolk lecithin, and 0.5 mg of an agent were dissolved in 1 ml of dichloromethane. While cooling in an ice bath, the obtained solution was slowly added dropwise, through a 27G needle, to 25 ml of distilled water, which was being stirred with Polytron PT-2100 (Kinematica) or an ultrasonic generator (TOMY). After the stirring was continued for 10 minutes, the mixture was further stirred with a stirrer at room temperature for 2 hours. Thereafter, dichloromethane was removed. The obtained microparticles were concentrated by ultra filtration (Amicon, Centriprep YM-10) and were then purified by gel filtration (Pharmacia, PD-10). The thus obtained particles were centrifuged at 13,000 g for 10 minutes, and the agent contained in the supernatant and deposit was assayed by HPLC. HPLC analysis was carried out in a water/acetonitrile system for measuring the absorption at 210 nm or 240 nm using a C4 reverse phase column (Waters, Symmetry 300). With regard to agents, PGE1, and ASO06 produced by esterifying carboxylic acid and a hydroxyl group thereof, were used as prostanoids.

agent remaining in PLGA [2] [%] | encapsulation ratio in PLGA microparticle [4] | Structure (SMILES) | sustained-release behavior [1] | releasing behavior with vs without freeze-drying [3]
≥ 80 | significantly increased | CCC(=O)OCC(=O)[C@@]1(OC(=O)CC)[C@@H](C)C[C@H]2[C@@H]3CCC4=CC(=O)C=C[C@]4(C)[C@@]3(F)[C@@H](O)C[C@@]21C [BDP, betamethazone dipropionate] | same sustained-release behavior as that of ASO06 | same releasing behavior regardless whether or not a freeze-drying treatment had been carried out
 | almost no PGE1 could be encapsulated | CCCCC[C@H](O)/C=C/[C@H]1[C@H](O)CC(=O)[C@@H]1CCCCCCC(=O)O [PGE1, prostaglandin E1] |  | 
 | significantly increased | CCCC(=O)O[C@]1(C(=O)COC(=O)CC)CC[C@H]2[C@@H]3CCC4=CC(=O)CC[C@]4(C)[C@H]3[C@@H](O)C[C@@]21C [HBP, hydrocortisone butyrate propionate] |  | 

Structure (SMILES) | agent remaining in PLGA [2] [%] | encapsulation ratio in PLGA microparticle [4] | sustained-release behavior [1] | releasing behavior with vs without freeze-drying [3]
C[C@]12CCC(=O)C=C1CC[C@@H]1[C@@H]2[C@@H](O)C[C@@]2(C)[C@H]1CC[C@]2(O)C(=O)CO [hydrocortisone, Hydrocortisone] |  | almost neither hydrocortisone nor betamethazone could be encapsulated |  | 
